This note sets out measurements from US8906944B2, “Compounds as tyrosine kinase modulators” (Allergan, Inc., priority 2009, dated 2014).

Assay [1] addresses PDGFβ (Homo sapiens, UniProt P09619). The experiment in a line: PDGFβ enzyme assay. The assay is classed as biochemical. To be noted: Table IV, amide or urea linker.
Assay [2] has as its target T1, human VEGF receptor (VEGFR-2) (Homo sapiens, UniProt P35968).
T1 construct: The cytoplasmic domain of the human VEGF receptor (VEGFR-2) was expressed; His; made in house; host or cells: insect cells (baculovirus)
Put plainly: VEGFR2 kinase assay. To be noted: His-VEGFR-2 cytoplasmic domain, 3.6 μM ATP; Table IV, amide or urea linker; read-out: VEGFR2 Enzyme IC50. The assay is classed as biochemical. An outline of the steps: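 His-tagged VEGFR-2 cytoplasmic domain from baculovirus-infected insect cells phosphorylating plate-bound poly-Glu-Tyr (4:1). IC50 from blank-subtracted optical density versus compound concentration.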

Assay [3] concerns the target VEGFR1 (Homo sapiens, UniProt P17948). Put plainly: VEGFR1 enzyme assay. It is filed as biochemical. To be noted: Table IV, amide or urea linker.
The target of assay [4] is VEGFR2 (Homo sapiens, UniProt P35968). The experiment in a line: VEGF stimulated Ca++ signal in vitro (FLIPR).
VEGFR2, sequence (P35968 20-1356): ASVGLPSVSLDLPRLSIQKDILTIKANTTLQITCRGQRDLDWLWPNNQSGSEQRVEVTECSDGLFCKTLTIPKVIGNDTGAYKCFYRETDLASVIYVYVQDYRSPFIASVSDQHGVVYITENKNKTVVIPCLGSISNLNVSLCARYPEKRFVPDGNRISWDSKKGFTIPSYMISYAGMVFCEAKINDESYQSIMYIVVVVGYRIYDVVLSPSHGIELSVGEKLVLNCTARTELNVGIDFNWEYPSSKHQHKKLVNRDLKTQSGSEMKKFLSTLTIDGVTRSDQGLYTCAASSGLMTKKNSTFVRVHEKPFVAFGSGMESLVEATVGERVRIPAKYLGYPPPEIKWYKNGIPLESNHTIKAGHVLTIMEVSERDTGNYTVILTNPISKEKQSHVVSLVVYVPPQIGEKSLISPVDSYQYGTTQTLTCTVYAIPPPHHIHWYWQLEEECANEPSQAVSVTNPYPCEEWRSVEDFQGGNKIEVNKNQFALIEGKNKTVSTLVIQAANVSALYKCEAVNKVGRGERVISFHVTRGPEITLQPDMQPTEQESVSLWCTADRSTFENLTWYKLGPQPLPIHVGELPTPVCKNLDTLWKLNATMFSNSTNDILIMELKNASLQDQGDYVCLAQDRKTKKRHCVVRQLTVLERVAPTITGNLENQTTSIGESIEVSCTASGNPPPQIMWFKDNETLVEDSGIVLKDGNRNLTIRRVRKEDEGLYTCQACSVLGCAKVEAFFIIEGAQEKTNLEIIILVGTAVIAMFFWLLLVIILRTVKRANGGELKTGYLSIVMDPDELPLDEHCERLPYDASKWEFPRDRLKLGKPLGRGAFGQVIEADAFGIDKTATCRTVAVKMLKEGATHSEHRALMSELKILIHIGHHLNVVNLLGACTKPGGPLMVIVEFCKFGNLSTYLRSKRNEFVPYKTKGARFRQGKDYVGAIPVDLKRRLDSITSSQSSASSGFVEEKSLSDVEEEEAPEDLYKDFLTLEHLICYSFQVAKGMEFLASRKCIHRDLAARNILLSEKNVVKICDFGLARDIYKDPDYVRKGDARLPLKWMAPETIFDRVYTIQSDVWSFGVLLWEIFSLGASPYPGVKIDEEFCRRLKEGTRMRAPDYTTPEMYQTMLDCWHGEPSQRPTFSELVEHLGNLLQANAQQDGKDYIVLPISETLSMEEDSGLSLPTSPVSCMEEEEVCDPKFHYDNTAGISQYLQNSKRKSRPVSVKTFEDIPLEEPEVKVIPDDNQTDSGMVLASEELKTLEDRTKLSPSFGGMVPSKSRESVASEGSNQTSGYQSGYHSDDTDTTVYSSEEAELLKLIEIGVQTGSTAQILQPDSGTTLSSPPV
Experimental: VEGF Stimulated Ca^++Signal in Vitro
Automated FLIPR (Fluorometric Imaging Plate Reader) technology was used to screen for inhibitors of VEGF induced increases in intracellular calcium levels in fluorescent dye loaded endothelial cells. HUVEC (human umbilical vein endothelial cells) (Clonetics) were seeded in 96-well fibronectin coated black-walled plates overnight at 37 degree. C./5% CO2. […] C. Cells were washed 4 times (Original Cell Wash, Labsystems) to remove extracellular dye. […] Data were generated by determining max-min fluorescence levels for unstimulated, stimulated, and drug treated samples. IC50 values for test compounds were calculated from % inhibition of VEGF stimulated responses in the absence of inhibitor.

VEGFR1, sequence (P17948 27-1338, species assumed): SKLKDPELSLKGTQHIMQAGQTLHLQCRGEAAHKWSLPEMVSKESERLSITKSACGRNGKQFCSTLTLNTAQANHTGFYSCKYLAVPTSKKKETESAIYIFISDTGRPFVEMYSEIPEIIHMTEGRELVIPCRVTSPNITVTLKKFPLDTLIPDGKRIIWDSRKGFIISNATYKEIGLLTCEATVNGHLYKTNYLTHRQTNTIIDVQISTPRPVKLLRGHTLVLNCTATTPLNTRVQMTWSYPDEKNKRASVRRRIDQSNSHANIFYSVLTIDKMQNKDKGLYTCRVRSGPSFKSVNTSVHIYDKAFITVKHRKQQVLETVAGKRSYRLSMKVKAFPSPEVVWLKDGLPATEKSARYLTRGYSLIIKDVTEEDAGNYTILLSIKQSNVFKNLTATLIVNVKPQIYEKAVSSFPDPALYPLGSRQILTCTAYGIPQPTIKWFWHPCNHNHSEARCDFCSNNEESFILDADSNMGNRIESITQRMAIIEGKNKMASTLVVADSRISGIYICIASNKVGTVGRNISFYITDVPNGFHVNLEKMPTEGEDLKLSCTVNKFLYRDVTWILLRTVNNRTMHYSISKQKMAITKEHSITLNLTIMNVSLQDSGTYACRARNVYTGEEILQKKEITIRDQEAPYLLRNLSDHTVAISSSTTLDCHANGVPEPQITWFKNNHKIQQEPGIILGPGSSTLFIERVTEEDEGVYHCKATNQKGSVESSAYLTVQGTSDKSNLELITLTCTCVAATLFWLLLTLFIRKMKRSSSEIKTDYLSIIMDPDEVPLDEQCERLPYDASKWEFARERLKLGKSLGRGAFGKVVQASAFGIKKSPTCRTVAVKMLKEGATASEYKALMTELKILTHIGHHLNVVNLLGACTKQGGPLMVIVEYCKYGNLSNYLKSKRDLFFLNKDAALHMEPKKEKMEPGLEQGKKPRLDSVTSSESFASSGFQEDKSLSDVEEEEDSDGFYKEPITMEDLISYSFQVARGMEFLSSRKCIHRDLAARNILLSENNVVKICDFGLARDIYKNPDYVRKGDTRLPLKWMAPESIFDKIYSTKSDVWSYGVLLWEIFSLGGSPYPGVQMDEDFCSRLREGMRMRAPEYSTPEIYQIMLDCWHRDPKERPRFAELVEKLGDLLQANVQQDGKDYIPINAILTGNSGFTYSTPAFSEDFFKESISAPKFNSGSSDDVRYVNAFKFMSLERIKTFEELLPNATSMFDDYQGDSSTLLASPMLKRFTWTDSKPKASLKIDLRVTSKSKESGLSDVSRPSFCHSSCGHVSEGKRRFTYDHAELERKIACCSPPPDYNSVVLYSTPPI
PDGFβ, sequence (P09619 33-1106): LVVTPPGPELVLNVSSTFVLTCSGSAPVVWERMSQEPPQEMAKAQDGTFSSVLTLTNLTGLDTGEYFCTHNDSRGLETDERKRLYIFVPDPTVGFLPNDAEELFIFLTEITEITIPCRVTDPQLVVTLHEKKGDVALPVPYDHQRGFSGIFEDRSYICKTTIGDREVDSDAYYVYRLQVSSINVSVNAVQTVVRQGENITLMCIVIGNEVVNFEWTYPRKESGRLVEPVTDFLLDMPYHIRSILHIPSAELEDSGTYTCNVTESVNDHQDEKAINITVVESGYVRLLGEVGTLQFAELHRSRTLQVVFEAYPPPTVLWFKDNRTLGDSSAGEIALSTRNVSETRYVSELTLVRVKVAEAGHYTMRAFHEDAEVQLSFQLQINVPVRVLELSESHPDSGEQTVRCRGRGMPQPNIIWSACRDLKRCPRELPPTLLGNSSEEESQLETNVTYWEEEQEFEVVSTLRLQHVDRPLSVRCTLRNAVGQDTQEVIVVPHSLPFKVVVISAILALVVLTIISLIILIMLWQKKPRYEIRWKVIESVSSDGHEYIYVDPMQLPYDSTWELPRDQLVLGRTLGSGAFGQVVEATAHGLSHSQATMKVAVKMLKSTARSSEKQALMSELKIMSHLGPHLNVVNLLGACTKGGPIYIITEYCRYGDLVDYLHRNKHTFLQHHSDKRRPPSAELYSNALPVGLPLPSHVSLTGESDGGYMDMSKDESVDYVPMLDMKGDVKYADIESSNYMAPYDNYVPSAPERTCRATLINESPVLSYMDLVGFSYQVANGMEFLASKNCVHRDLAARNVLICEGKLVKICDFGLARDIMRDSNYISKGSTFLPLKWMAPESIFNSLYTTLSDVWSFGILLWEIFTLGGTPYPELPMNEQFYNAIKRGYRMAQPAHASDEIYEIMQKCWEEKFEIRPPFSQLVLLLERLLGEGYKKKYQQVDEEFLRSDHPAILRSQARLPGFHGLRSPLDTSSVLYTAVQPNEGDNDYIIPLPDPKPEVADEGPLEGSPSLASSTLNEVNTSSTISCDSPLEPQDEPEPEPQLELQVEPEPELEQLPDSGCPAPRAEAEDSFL
T1 sequence (P35968 786-1356 limits assumed): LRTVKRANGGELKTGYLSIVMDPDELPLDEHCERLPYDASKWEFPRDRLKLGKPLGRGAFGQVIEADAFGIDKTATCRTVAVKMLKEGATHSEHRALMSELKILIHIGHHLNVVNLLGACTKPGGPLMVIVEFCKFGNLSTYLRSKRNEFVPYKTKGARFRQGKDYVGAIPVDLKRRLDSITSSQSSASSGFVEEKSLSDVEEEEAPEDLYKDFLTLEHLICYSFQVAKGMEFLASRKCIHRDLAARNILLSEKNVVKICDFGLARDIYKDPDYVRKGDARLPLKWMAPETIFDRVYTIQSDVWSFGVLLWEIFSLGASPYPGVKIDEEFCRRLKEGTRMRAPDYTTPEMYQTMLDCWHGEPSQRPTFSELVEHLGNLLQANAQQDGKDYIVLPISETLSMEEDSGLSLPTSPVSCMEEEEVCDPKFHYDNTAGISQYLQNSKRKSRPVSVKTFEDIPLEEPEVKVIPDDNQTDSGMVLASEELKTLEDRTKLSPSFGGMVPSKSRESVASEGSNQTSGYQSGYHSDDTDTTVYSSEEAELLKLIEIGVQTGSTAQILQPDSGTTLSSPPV

The term IC50 denotes the concentration at which inhibition is half-maximal. Regarding `CCOC(=O)N1CCN(CCCNC(=O)c2c[nH]c(-c3cc(Oc4ccc(NC(=O)Nc5cc(C)ccc5F)c(F)c4)ccn3)c2)CC1` [Example 172, ethyl 4-(3-{[(5-{4-[3-fluoro-4-({[(2-fluoro-5-methylphenyl)amino]carbonyl}amino)phenoxy]pyridin-2-yl}-1H-pyrrol-3-yl)carbonyl]amino}propyl)piperazine-1-carboxylate], the IC50 was determined as 19 nM in assay [1], 10 nM in assay [2], 11 nM in assay [3] and 13 nM in assay [4].
As for `COC(=O)CNC(=O)c1c[nH]c(-c2cc(Oc3ccc(NC(=O)Nc4cc(C)ccc4F)c(F)c3)ccn2)c1` [Example 211, methyl {[(5-{4-[3-fluoro-4-({[(2-fluoro-5-methylphenyl)amino]carbonyl}amino)phenoxy]pyridin-2-yl}-1H-pyrrol-3-yl)carbonyl]amino}acetate], the IC50 was 12 nM in assay [1], 9 nM in assay [2], 8 nM in assay [3] and 3 nM in assay [4].
With `Cc1ccc(F)c(NC(=O)Nc2ccc(Oc3ccnc(-c4cc(C(=O)NCCCNC(=O)OC(C)(C)C)c[nH]4)c3)cc2F)c1` [Example 212, tert-butyl (3-{[(5-{4-[3-fluoro-4-({[(2-fluoro-5-methylphenyl)amino]carbonyl}amino)phenoxy]pyridin-2-yl}-1H-pyrrol-3-yl)carbonyl]amino}propyl)carbamate], the IC50 in assay [1] was 45 nM; in assay [2], 13 nM; in assay [3] it was 20 nM; in assay [4], 6 nM.
On to `COC(=O)CN(CCCNC(=O)c1c[nH]c(-c2cc(Oc3ccc(NC(=O)Nc4cc(C)ccc4F)c(F)c3)ccn2)c1)CC(=O)OC` [Example 213, dimethyl 2,2′-[(3-{[(5-{4-[3-fluoro-4-({[(2-fluoro-5-methylphenyl)amino]carbonyl}amino)phenoxy]pyridin-2-yl}-1H-pyrrol-3-yl)carbonyl]amino}propyl)imino]diacetate], for which the IC50 was found to be 38 nM in assay [1], 9 nM in assay [2], 13 nM in assay [3] and 3 nM in assay [4].
Turning to `COC(=O)CN(CCNC(=O)c1c[nH]c(-c2cc(Oc3ccc(NC(=O)Nc4cc(C)ccc4F)c(F)c3)ccn2)c1)CC(=O)OC` [Example 215, dimethyl 2,2′-[(2-{[(5-{4-[3-fluoro-4-({[(2-fluoro-5-methylphenyl)amino]carbonyl}amino)phenoxy]pyridin-2-yl}-1H-pyrrol-3-yl)carbonyl]amino}ethyl)imino]diacetate], the IC50 in assay [1] is 34 nM; in assay [2] it was 5 nM; in assay [3], 13 nM; in assay [4], 4 nM.
For the molecule `CCOC(=O)CN1CCN(C(=O)c2c[nH]c(-c3cc(Oc4ccc(NC(=O)Nc5cc(C)ccc5F)c(F)c4)ccn3)c2)CC1` [Example 219, ethyl {4-[(5-{4-[3-fluoro-4-({[(2-fluoro-5-methylphenyl)amino]carbonyl}amino)phenoxy]pyridin-2-yl}-1H-pyrrol-3-yl)carbonyl]piperazin-1-yl}acetate], the IC50 turned out to be 29 nM in assay [1], 9 nM in assay [2], 8 nM in assay [3] and 8 nM in assay [4].
On to `Cc1ccc(F)c(NC(=O)Nc2ccc(Oc3ccnc(-c4cc(C(=O)N5CCNCC5)c[nH]4)c3)cc2F)c1` [Example 221, 1-(2-fluoro-5-methylphenyl)-3-[2-fluoro-4-({2-[4-(piperazin-1-ylcarbonyl)-1H-pyrrol-2-yl]pyridin-4-yl}oxy)phenyl]urea], for which the IC50 turned out to be 19 nM in assay [1], 11 nM in assay [2], 7 nM in assay [3] and 15 nM in assay [4].
Turning to `Cc1ccc(F)c(NC(=O)Nc2ccc(Oc3ccnc(-c4cc(C(=O)OCCCN5CCOCC5)c[nH]4)c3)cc2F)c1` [Example 229, 3-morpholin-4-ylpropyl 5-{4-[3-fluoro-4-({[(2-fluoro-5-methylphenyl)amino]carbonyl}amino)phenoxy]pyridin-2-yl}-1H-pyrrole-3-carboxylate], the IC50 in assay [1] was 9 nM; in assay [2], 11 nM; in assay [3], 11 nM; in assay [4], 13 nM.
